IC50 data for 17 molecules are collected here from patent publication US9650339B2, “Inhibitors of histone demethylases” (Gilead Sciences, Inc., priority 2013, dated 2017).

One experiment has as its target T1, KDM4C (JMJD2C) (Homo sapiens, UniProt Q9H3R0).
T1 sequence (Q9H3R0 1-349): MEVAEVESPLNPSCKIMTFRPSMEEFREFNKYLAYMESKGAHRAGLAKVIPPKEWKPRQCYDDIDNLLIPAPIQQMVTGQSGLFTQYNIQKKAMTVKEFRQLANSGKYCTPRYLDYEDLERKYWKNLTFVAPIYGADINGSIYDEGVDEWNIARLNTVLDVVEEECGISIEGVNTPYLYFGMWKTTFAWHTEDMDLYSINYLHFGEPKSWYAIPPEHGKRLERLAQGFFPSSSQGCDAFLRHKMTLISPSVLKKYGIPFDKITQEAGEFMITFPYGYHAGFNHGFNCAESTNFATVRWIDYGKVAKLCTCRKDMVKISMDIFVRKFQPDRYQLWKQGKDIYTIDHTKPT
Nature of the experiment: Histone lysine demethylase AlphaLISA assay, KDM4C. In kind it is biochemical. To be noted: read-out: KDM4C HDME Inhibition IC50. An outline of the steps:
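Steps: enzyme equilibrated 10 min in buffer; compounds in 3% DMSO solution added, 10 min; substrate mix added (peptide, 25 μM L-Asc, 10 μM α-KG), room temperature; acceptor beads, then streptavidin donor beads, dark incubations; plate read.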
In general terms: Alpha assays give light when donor and acceptor beads are brought close together.

The next experiment has as its target T2, KDM7 (PHF8) (Homo sapiens, UniProt Q9UPP1).
T2 construct: KDM7 (PHF8); BRIC; 1-1322; Bac
Nature of the experiment: Histone lysine demethylase AlphaLISA assay, KDM7. It is filed as biochemical. The settings on record: read-out: PHF8 HDME Inhibition IC50. On the procedure:
(§1) Assays are performed analogously to the protocol described by PerkinElmer (Roy et al. PerkinElmer Technical Note: AlphaLISA #12, April 2011)
(§2) Enzymes are dissolved in enzyme buffer and incubated for 10 min before being added to 3% DMSO solutions of compounds in enzyme buffer. Incubated for another 10 minutes, before substrate solution is added and the reaction mixture is incubated at room temperature. 10 μL acceptor beads, suspended in Epigenetic Buffer (Perkin Elmer AL008) from stock, are added and the suspension is incubated in the dark at room temperature, before a suspension of streptavidin donor beads (Perkin Elmer 6760002) in Epigenetic Buffer is added. After incubation at room temperature in the dark the plates are read. […]
BK9M2: Biotin-ARTKQTAR(KMe2)STGGKAPRKQ-NH2 (AnaSpec 64359)
BK9M1: Biotin-ARTKQTAR(KMe1)STGGKAPRKQ-NH2 (AnaSpec 64358) […]
(§3) Substrate Solution: Substrate, 25 μM L-Asc, and 10 μM α-KG in Buffer A.

The next experiment concerns the target T3, KDM5C (JARID1C) (Homo sapiens, UniProt P41229).
T3 construct: 2-1560; purchased BPS; host or cells: Bac (baculovirus system)
Put plainly: Histone lysine demethylase AlphaLISA assay, KDM5C. It is filed as biochemical. The settings on record: read-out: KDM5C HDME Inhibition IC50. On the procedure: as §1, §2
H3K4M3B: H-ART(Kme3)QTARKSTGGKAPRKQLA-NH-Biotin (Caslo, Denmark) […]
as §3

The next experiment deals with T4, KDM4C (Homo sapiens, UniProt Q9H3R0).
T4 construct: Full length; host or cells: U2OS
T4 sequence (Q9H3R0 1-1056): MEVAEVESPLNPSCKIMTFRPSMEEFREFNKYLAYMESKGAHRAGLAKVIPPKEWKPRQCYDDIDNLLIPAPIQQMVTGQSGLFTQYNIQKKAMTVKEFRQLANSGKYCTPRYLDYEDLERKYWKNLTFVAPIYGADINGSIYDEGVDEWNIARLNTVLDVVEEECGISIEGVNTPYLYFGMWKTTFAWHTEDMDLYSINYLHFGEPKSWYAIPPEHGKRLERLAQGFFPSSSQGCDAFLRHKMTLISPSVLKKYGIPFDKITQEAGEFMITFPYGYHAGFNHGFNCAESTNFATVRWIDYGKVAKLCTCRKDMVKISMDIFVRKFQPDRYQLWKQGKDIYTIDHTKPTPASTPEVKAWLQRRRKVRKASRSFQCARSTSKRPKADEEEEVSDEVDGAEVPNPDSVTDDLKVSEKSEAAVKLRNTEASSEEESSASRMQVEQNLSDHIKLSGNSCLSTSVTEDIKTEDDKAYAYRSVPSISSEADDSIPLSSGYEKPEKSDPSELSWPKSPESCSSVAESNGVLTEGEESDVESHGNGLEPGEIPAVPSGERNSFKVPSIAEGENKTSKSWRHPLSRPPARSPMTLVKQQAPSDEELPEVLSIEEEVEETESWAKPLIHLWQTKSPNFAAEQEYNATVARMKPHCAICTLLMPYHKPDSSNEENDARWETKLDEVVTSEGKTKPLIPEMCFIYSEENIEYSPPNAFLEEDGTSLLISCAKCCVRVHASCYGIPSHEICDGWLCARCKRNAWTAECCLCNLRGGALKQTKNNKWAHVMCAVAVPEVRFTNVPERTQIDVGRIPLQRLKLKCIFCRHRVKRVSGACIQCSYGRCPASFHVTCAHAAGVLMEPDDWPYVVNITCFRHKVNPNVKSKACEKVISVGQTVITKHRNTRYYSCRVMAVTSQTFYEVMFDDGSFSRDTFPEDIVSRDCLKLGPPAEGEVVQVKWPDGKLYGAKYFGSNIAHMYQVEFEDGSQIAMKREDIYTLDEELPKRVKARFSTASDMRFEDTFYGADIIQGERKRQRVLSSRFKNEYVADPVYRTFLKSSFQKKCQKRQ
Nature of the experiment: Histone lysine demethylase immunofluorescence assay, U2OS cells transfected with KDM4C. In kind it is cell-based. To be noted: U2OS cells transfected with pCMVHA KDM4C; mark detected H3K9me3; 20 hours. As to the method: U2OS cells were seeded 24 hours before transfection. Transfection was performed with Fugene HD transfection reagent as recommended by the manufacturer. 6 hours after transfection, the cells were harvested and seeded into multi well plates into media containing compound. The media used was DMEM containing 10% FBS and pen/strep. 20 hours after incubation of cells with compounds, the cells were washed in PBS, harvested by fixation with formaldehyde 4% aqueous solution, and washed in PBS. Subsequently, the cells were permeabilized in PBS with 0.2% Triton X-100 for. Blocking was performed in PBS with 0.2% Triton X-100 and 5% FBS. The cells were incubated with primary antibodies in blocking solution over night at 4° C. The primary antibodies used in the assays were HA.11 (Covance, MMS-101P) and the antibody detecting the mark specified in the table below. After incubation with primary antibodies, the cells were washed with PBS, incubated with secondary antibodies (Alexa fluor 594 goat anti rabbit IgG, Invitrogen, A11012; Alexa flour 488 donkey anti mouse IgG, Invitrogen, A21202) and Hoechst, (Sigma, 33342) in blocking solution, and washed again with PBS. Finally, PBS was added and high throughput imaging and analysis were performed by an IN Cell Analyzer 1000 (GE Healthcare). The robot software analyzed individual cells and divided these into HA+ (transfected cells) and HA− (non-transfected cells). The IC50 values were based on an average measure of the staining of the mark specified in the table below in the transfected cells.

T2 sequence (Q9UPP1 37-440 limits assumed): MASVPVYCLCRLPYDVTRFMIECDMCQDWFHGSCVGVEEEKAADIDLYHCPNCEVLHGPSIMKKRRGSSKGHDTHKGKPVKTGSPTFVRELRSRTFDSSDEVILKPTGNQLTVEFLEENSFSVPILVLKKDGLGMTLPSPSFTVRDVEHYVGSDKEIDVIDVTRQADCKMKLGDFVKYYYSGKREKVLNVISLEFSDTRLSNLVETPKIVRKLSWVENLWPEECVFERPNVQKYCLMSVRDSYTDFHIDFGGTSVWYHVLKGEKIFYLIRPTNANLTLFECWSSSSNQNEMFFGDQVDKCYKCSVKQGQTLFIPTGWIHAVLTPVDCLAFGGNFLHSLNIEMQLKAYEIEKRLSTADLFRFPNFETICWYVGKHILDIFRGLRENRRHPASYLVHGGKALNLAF
T3 sequence (P41229 2-1560): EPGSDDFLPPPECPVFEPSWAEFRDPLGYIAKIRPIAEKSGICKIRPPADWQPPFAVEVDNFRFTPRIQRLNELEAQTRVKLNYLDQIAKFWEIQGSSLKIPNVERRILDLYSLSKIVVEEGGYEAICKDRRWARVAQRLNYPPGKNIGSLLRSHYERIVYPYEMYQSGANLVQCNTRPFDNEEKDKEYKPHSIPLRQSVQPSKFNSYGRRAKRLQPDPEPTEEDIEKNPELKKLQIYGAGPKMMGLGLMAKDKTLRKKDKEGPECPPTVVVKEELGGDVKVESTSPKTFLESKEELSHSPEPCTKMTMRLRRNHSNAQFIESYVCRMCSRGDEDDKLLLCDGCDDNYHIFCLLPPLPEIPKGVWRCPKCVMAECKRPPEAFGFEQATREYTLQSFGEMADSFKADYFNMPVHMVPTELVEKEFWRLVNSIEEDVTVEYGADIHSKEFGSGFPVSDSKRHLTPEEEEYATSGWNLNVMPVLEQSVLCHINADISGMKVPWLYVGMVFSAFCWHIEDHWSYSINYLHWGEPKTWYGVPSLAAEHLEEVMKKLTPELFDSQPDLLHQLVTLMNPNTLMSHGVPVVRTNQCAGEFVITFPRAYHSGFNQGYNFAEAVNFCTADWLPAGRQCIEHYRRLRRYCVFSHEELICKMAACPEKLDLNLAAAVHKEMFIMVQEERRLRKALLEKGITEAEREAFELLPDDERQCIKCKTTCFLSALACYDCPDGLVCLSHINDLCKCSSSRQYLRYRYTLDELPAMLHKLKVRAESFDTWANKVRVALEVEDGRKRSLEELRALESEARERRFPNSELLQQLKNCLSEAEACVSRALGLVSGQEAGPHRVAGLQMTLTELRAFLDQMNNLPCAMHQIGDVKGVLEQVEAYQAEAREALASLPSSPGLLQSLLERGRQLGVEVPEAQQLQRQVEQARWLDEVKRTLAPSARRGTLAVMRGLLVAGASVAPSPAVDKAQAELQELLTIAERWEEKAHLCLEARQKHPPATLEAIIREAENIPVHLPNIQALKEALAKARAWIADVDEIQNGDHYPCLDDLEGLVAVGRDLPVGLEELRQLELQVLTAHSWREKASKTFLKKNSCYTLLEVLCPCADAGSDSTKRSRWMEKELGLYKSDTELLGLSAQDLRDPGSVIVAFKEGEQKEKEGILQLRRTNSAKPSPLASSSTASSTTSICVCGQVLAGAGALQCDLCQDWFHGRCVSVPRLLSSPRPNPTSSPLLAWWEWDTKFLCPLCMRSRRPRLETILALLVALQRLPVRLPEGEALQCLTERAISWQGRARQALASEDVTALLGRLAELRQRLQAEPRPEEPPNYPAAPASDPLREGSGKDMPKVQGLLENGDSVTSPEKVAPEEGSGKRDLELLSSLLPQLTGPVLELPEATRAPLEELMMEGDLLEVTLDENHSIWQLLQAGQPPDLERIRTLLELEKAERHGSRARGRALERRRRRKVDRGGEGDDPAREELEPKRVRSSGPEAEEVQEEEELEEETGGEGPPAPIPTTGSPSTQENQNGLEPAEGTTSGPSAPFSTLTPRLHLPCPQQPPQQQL

`CCN(CC)C(=O)CNCc1cc(/C=N/CCC2CCCCC2)ccn1` [Compound 57, 2-[({4-[[(2-cyclohexylethyl)imino]-methyl]pyridin-2-yl}methyl)amino]-N,N-diethylacetamide]: the concentration for half-maximal inhibition (IC50) at KDM4C (JMJD2C) was 250 to 2500 nM; on KDM7 (PHF8), more than 2500 nM; on KDM5C (JARID1C) it was less than 250 nM.
For `CN(C)CCCCNCc1cc(CNC2CC2)ccn1` [Compound 10, N-{[2-({[4-(dimethylamino)butyl]-amino}methyl)pyridin-4-yl]methyl}-cyclopropanamine], the IC50 against KDM4C, at KDM4C (JMJD2C) and on KDM7 (PHF8) was more than 2500 nM in each case.
With `CN(C)CC1CCC(CNCc2cc(C=O)ccn2)CC1` (centres unmarked) [Compound 97, 2-{[({4-[(dimethylamino)-methyl]cyclohexyl}-methyl)amino]-methyl}pyridine-4-carbaldehyde], the IC50 is 250 to 2500 nM against KDM4C, more than 2500 nM on KDM4C (JMJD2C) and more than 2500 nM on KDM7 (PHF8).
In the case of `CCN(CCN(C)C)C(=O)CNCc1cc(C2OCC(Cc3ccccc3)CN2C(=O)C(F)(F)F)ccn1` (centres unmarked) [Compound 90, 2-[({4-[5-benzyl-3-(trifluoroacetyl)-1,3-oxazinan-2-yl]pyridin-2-yl}methyl)amino]-N-[2-(dimethylamino)-ethyl]-N-ethylacetamide], the half-inhibitory concentration (IC50) is 250 to 2500 nM at KDM4C (JMJD2C) and more than 2500 nM on KDM7 (PHF8).
On to `CCCCCCCC/N=C/c1ccnc(CNCC(=O)N(CC)CC)c1` [Compound 58, N,N-diethyl-2-[({4-[(octylimino)methyl]-pyridin-2-yl}methyl)amino]-acetamide], for which the 50% inhibitory concentration (IC50) at KDM4C (JMJD2C) is 250 to 2500 nM; on KDM7 (PHF8) it was more than 2500 nM; on KDM5C (JARID1C), less than 250 nM.
On to `CN(CC(=O)N1CCCCC1)Cc1cc(C=O)ccn1` [Compound 120, 2-({methyl[2-oxo-2-(piperidin-1-yl)ethyl]amino}-methyl)pyridine-4-carbaldehyde], for which the IC50 against KDM4C was more than 2500 nM; at KDM4C (JMJD2C), more than 2500 nM; at KDM7 (PHF8), 250 to 2500 nM.
`CN(Cc1ccccc1F)C(=O)CNCc1cc(/C=N/CCO)ccn1` [Compound 92, N-[(2-fluorophenyl)methyl]-2-[({4-[[(2-hydroxyethyl)imino]-methyl]pyridin-2-yl}methyl)amino]-N-methylacetamide]: the 50% inhibitory concentration (IC50) against KDM4C, on KDM4C (JMJD2C) and on KDM7 (PHF8) was more than 2500 nM throughout.
For the molecule `CCN(CCN(C)C)C(=O)CNCc1cc(C2OCC3(CC3)CN2C(=O)C(F)(F)F)ccn1` (centres unmarked) [Compound 91, N-[2--(dimethylamino)-ethyl]-N-ethyl-2-[({4-[7-(trifluoroacetyl)-5-oxa-7-azaspiro[2.5]-octan-6-yl]pyridin-2-yl}methyl)amino]-acetamide], the IC50 is 250 to 2500 nM on KDM4C (JMJD2C) and more than 2500 nM on KDM7 (PHF8).
Turning to `OCC/N=C/c1ccnc(CNCCc2ccccc2OCc2ccccc2)c1` [Compound 93, 2-[({2-[({2-[2-(benzyloxy)phenyl]-ethyl}amino)methyl]-pyridin-4-yl}methylidene)-amino]ethan-1-ol], the IC50 against KDM4C, on KDM4C (JMJD2C) and at KDM7 (PHF8) was more than 2500 nM each time.
For `CCN(CC)C(=O)CNCc1cc(C=O)ccn1` [Compound 105, N,N-diethyl-2-{[(4-formylpyridin-2-yl)methyl]amino}-acetamide], the concentration for half-maximal inhibition (IC50) against KDM4C and on KDM4C (JMJD2C) was more than 2500 nM in each case.
In the case of `CC1CCCCN1CCCNCc1cc(CNC2CC2)ccn1` (centres unmarked) [Compound 11, N-{[2-({[3-(2-methylpiperidin-1-yl)propyl]amino}methyl)-pyridin-4-yl]methyl}-cyclopropanamine], the IC50 on KDM4C, at KDM4C (JMJD2C) and at KDM7 (PHF8) was more than 2500 nM throughout.
Consider `NCc1ccnc(CNCCCCN2CCC2)c1` [Compound 7, [2-({[4-(azetidin-1-yl)butyl]amino}methyl)-pyridin-4-yl]-methanamine], for which the 50% inhibitory concentration (IC50) at KDM4C, at KDM4C (JMJD2C) and at KDM7 (PHF8) was more than 2500 nM throughout.
With `CC(C)C[C@H](NCc1cc(/C=N/CCO)ccn1)C(=O)N1CCCCC1` [Compound 95, (2S)-2-[({4-[[(2-hydroxyethyl)imino]-methyl]pyridin-2-yl}methyl)amino]-4-methyl-1-(piperidin-1-yl)pentan-1-one], the concentration for half-maximal inhibition (IC50) on KDM4C and at KDM4C (JMJD2C) was more than 2500 nM in each case.
For the molecule `CCN(CC(C)(C)N(C)C)C(=O)CNCc1cc(C=O)ccn1` [Compound 118, N-[2-(dimethylamino)-2-methylpropyl]-N-ethyl-2-{[(4-formylpyridin-2-yl)methyl]amino}-acetamide], the IC50 against KDM4C was 250 to 2500 nM; on KDM4C (JMJD2C) it was less than 250 nM; on KDM7 (PHF8), 250 to 2500 nM.
`CCN(CC)CCCCNCc1cc(CN)ccn1` [Compound 5, [2-({[4-(diethylamino)butyl]-amino}methyl)pyridin-4-yl]methanamine]: the half-maximal inhibitory concentration (IC50) against KDM4C was 250 to 2500 nM; on KDM4C (JMJD2C) it was more than 2500 nM; on KDM7 (PHF8), more than 2500 nM.
Regarding `CCN(CCC#N)C(=O)CNCc1cc(/C=N/CCO)ccn1` [Compound 94, N-(2-cyanoethyl)-N-ethyl-2-[({4-[[(2-hydroxyethyl)imino]-methyl]pyridin-2-yl}methyl)amino]-acetamide], the IC50 is more than 2500 nM against KDM4C, 250 to 2500 nM on KDM4C (JMJD2C) and 250 to 2500 nM at KDM7 (PHF8).
`CN(CCCNCc1cc(/C=N/C2CC2)ccn1)Cc1ccccc1` [Compound 41, N-({2-[({3-[benzyl(methyl)amino]-propyl}amino)methyl]-pyridin-4-yl}methylidene)-cyclopropanamine]: the values for the IC50 on KDM4C, on KDM4C (JMJD2C) and on KDM7 (PHF8) were 250 to 2500 nM, 250 to 2500 nM and more than 2500 nM, respectively.

One may read the IC50 as the midpoint of a concentration-inhibition curve.
